Laboratory results published in PubChem BioAssay (NCI).
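Exposure lasted 48 hours, with cells grown in 96-well plates and compounds tested at five concentrations. At the GI50, growth is halved. TGI is the concentration that stops growth completely.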

Tests used:
Test in all cases: inhibition of tumour cell growth, NCI panel, 48 h
[1] = tested on: LOX IMVI melanoma
[2] = tested on: SK-OV-3 ovarian
[3] = tested on: COLO 205 colon
[4] = tested on: CAKI-1 renal
[5] = tested on: ACHN renal
[6] = tested on: SF-295 CNS
[7] = tested on: HT29 colon
[8] = tested on: SW-620 colon
[9] = tested on: SK-MEL-5 melanoma
[10] = tested on: SK-MEL-28 melanoma

SMILES | TGI [1] [µM] | TGI [2] [µM] | TGI [3] [µM] | TGI [4] [µM] | TGI [5] [µM] | TGI [6] [µM] | TGI [7] [µM] | TGI [8] [µM] | TGI [9] [µM] | TGI [10] [µM] | GI50 [10] [µM] | GI50 [2] [µM] | GI50 [3] [µM] | GI50 [5] [µM] | GI50 [7] [µM] | GI50 [8] [µM] | GI50 [9] [µM]
CC1=CCC2(C#N)CCC1C2=O (configuration not stated) | > 100 | > 100 | > 100 | > 100 | > 100 | > 100 | > 100 | > 100 | > 100 | – | – | – | – | – | – | – | –
CC(C)OCN1COCN=C1NC#N | – | > 100 | 47.9 | > 100 | > 100 | > 100 | > 100 | 34.8 | > 100 | > 100 | – | – | – | – | – | – | –
Nc1ccc(-c2ccc(-c3nc4ccccc4[nH]3)cc2)cc1 | > 100 | > 100 | – | > 54.7 | > 92.8 | – | 21.6 | > 100 | > 100 | > 100 | 2.08 | 46 | 0.32 | 13.6 | 0.606 | < 0.0506 | 14.9
N/C(=N\C(=S)N1CCCCC1)N1CCCCC1 | > 100 | > 100 | – | > 100 | > 100 | > 100 | > 100 | > 100 | > 100 | > 100 | – | – | – | – | – | – | –
CCCCCN(CCCCC)C(=O)[C@@H](CCC(=O)OCc1ccccc1)NC(=O)c1cc2ccccc2[nH]1 | > 100 | > 100 | > 100 | > 100 | > 100 | > 100 | > 100 | > 100 | – | > 100 | – | – | – | – | – | – | –
COC(=O)C(C(=O)C(=O)Nc1ccccc1OC)c1csc(-n2nc(-c3ccccc3)cc2-c2ccccc2)n1 (configuration not stated) | > 100 | > 100 | > 100 | > 100 | > 100 | – | > 100 | > 100 | – | – | – | – | – | – | – | – | –
CC(NC1CCC[C@H]1O)c1ccccc1 (mixture of isomers) | > 100 | > 100 | > 100 | – | > 100 | > 100 | > 100 | > 100 | > 100 | > 100 | – | – | – | – | – | – | –
CC(=O)O[C@H]1CCC2[C@@H]3CCC4C(=O)c5oncc5C[C@]4(C)C3CC[C@@]21C (some centres not stated) | > 100 | > 100 | > 100 | – | > 100 | > 100 | > 100 | > 100 | > 100 | > 100 | – | – | – | – | – | – | –
CN(C)CC1(C)CC/C(=C\c2ccc3c(c2)OCO3)C1=O (configuration not stated) | > 100 | – | > 100 | > 100 | > 100 | > 100 | > 100 | > 100 | > 100 | > 100 | – | – | – | – | – | – | –
Nc1nc(N)c(-c2ccccc2)c(C(=O)Nc2ccc(Cl)c(Cl)c2)n1 | > 100 | – | – | > 100 | > 100 | > 100 | > 100 | > 100 | > 100 | > 100 | – | – | – | – | – | – | –
CC1=CC(C)C(O)C(C)/C=C/C(O)C/C=C(/C)C(=O)CC(O)C(C)\C=C/C=C/C=C\C(=O)NC2=C(O)c3cc(C)c(O)c(c3C(=O)C2=O)C1=O (configuration not stated) | > 100 | – | > 100 | > 100 | > 100 | > 100 | > 100 | > 100 | > 100 | > 100 | – | – | – | – | – | – | –
